Test results from patent EP3586875A1, “STABILIZATION OF POLYSORBATE” (Lonza Limited, priority 2018, dated 2020).

What was measured:
Assay type in all cases: physicochemical
[1] = LC-UV-MS quantification of free fatty acids in polysorbate solutions after storage
Experimental: (§1) Studies were performed to investigate oxidative degradation of PS20 and PS80 in aqueous solutions containing the antioxidants BHT or BHA. The following solutions were tested: • 1) polysorbate solutions of 10% (w/v) ± 0.02% (w/v) of the respective antioxidant, • 2) polysorbate solutions of 0.1% (w/v) ± 0.0002% (w/v) of the respective antioxidant. For solution 1), stabilized (containing the antioxidant BHT or BHA at a concentration of 0.2% (w/w)) and unstabilized (not containing any antioxidant) neat PS was diluted to a concentration of 10% (w/v) by adding 5 g of PS into a 50 mL volumetric flask and filling up to the 50 mL mark with H2O. The solution was stirred with a magnetic stirrer for about 20 minutes to ensure complete dissolution of PS. 5 ml of each solution was aliquoted into 6R vials. Each vial was closed with a stopper and a cap.
(§2) Throughout the experiments, the solutions were subjected to three different conditions as follows: "T0": stored at -20°C for 7 weeks, "H2O2": stored at 25°C and 60% humidity for 7 weeks in the presence of hydrogen peroxide (H2O2) at a concentration of 10% (w/w) based on the molar ratio of used antioxidant. "Air": stored at 40°C and 75% humidity for 7 weeks and exposed to air (needle in vial stopper for free air exchange during incubation).
LC-UV-MS was used to quantify FFA levels in solutions of 10% PS (w/v) ± 0.02% (w/v) of the antioxidants BHT or BHA. The FFAs lauric acid, myristic acid and palmitic acid were quantified for PS20-containing solutions and palmitic acid, stearic acid and oleic acid were quantified for PS80-containing solutions. The RL for all FFAs was 50000 ppb.
LC-UV-MS conditions were applied as in Example 2. Quantification of the FFAs was achieved by integration of the LC-MS signals at their corresponding ion trace (lauric acid = m/z 199.3; myristic acid = m/z 227.3; palmitic acid = m/z 255.3; stearic acid = m/z 283.3; oleic acid = m/z 281.3) in negative mode and using a calibration curve obtained from the integrated LC-MS signals of each corresponding ion trace of the external reference of lauric acid, myrisitic acid, palmitic acid, stearic acid and oleic acid. FFA reference standards in aqueous solutions at concentrations from 0.5 ppm to 5 ppm were prepared. All reference standard solutions were directly analyzed by LC-UV-MS.

[2] = LC-UV-MS quantification of 4HNE in PS80 solutions after storage; conditions: 10% PS80; Air; 100-fold diluted; RL 50 micro M
Experimental: as §1, with “cap. […]” for “cap.”
LC-UV-MS was used to quantify 4HNE levels in solutions of 10% PS80 (w/v) ± 0.02% (w/v) of the antioxidants BHT or BHA. […]
Quantification of 4HNE was achieved by integration of the LC-UV signals (lambda = 220 nm) and using a calibration curve obtained from the integrated LC-UV signals (lambda = 220 nm) of the external reference 4HNE. As a reference standard aqueous 4HNE solutions with concentrations between 0.05 ppm and 1 ppm were prepared and directly analyzed by LC-UV-MS. […]

[3] = HS-GC-MS quantification of headspace hexanal in PS80 solutions after storage; conditions: 10% PS80, RL of 100 ppb
Experimental: as §1, §2
GC-MS was used to quantify headspace hexanal levels for solutions of 10% PS (w/v) ± 0.02% (w/v) of the antioxidants BHT or BHA.
The following HS-GC-MS conditions were applied: Headspace oven: 10 min at 80°C, Column: Agilent HP-5MS, 30 m x 250 micro M x 0.25 micro M; GC oven: 3 min at 35°C, then 20°C/min to 320°C, then 10 min at 320°C; column flow: 1.3 mL/min; MS: Full scan, m/z = 35 - 300. As a reference standard aqueous toluene solutions with concentrations between 0.1 ppm and 1 ppm in 10 mL H2O were prepared and directly analyzed by HS-GC-MS.
1 mL of each sample was transferred into a headspace vial with a volume of 20 mL, closed, and analyzed directly.
Quantification was achieved by integration of the HS-GC-MS signals (TIC) and using a calibration curve obtained from the integrated HS-GC-MS signals (TIC) of the external reference toluene.
Tentative identification of degradants was performed by comparing the mass spectrum of each GC-MS signal against the NIST14 standard reference database.
The degradant most consistently identified by HS-GC-MS to show a value above the RL of 100 ppb was hexanal.

[4] = HPLC-FMA (fluorescence micelle assay), polysorbate concentration after storage; conditions: diluted to target 0.04% PS (w/v)
Experimental: as §1
For solution 2), 50 micro L of the 10% (w/v) PS solutions were transferred into 6R vials and filled up with 4.95 mL H2O to a final concentration of 0.1% (w/v) PS.
as §2
HPLC FMA was used to measure the concentration of polysorbate in solutions of 10% PS20 ± 0.02% (w/v) of the antioxidants BHT or BHA, solutions of 10% PS80 (w/v) ± 0.02% (w/v) of the antioxidants BHT or BHA, and solutions of 0.1% PS80 (w/v) ± 0.0002% (w/v) of the antioxidants BHT or BHA. Samples were diluted to the target concentration of 0.04% PS (w/v) prior to analysis.
The following HPLC fluorescence detector conditions were applied: Column: knitted reaction coil L x I.D. 20mx 0.25mm, volume 1.0mL SUPELCO, ambient temperature; injection volume: 10 micro L; flow: 1.5 mL/min; isocratic 2min (A: 0.15M sodium chloride, 0.05 M L-histidine, pH = 6, 5%(v/v) acetonitrile, 5 micro M N-phenyl-1-naphtylamine (NPN), 15 ppm Brij® 35); FLD: lambda excitation = 350 nm, lambda emission = 420 nm, data mode: emission.
Quantification of each sample type was performed by using 10% T0 samples for preparation of an external calibration curve from 0.02% to 0.06% PS.
Empower 2 was used as software for quantification.
The assay is based on the uptake of the fluorescent dye NPN by surfactant micelles using flow injection analysis and subsequent fluorescence detection. The dye is present in the mobile phase. In the lipophilic surrounding in the inside of the micelles the fluorescent signal is 10-fold higher than in aqueous mobile phase. Therefore, the concentration of polysorbate can be measured according to the formation of micelles and the uptake of the dye by the subsequent increase of the signal intensity.

COc1ccc(O)c(C(C)(C)C)c1 [BHA, butylated hydroxyanisole]
X = calculated fatty acid concentration in ppb, Lauric acid ([1]; PS20 - 10%, Air, RL 50000ppb): below 200000 ppb
X = calculated fatty acid concentration in ppb, Myristic acid ([1]; PS20 - 10%, Air, RL 50000ppb): around 50000 ppb
X = calculated fatty acid concentration in ppb, Oleic acid ([1]; PS80 - 10%, Air, RL 50000ppb): around 200000 ppb
X = calculated fatty acid concentration in ppb, Stearic acid ([1]; PS80 - 10%, Air, RL 50000ppb): around 60000 ppb
4HNE measured [2]: < 50 micro M
hexanal (headspace) ([3]; Air): no hexanal could be detected
hexanal (headspace) ([3]; H2O2): no hexanal could be detected
hexanal (headspace) ([3]; T0): no hexanal could be detected
X= calculated concentration in % of the average of 2 injections (polysorbate) ([4]; PS20 - 10%, Air): ~0.04%
X= calculated concentration in % of the average of 2 injections (polysorbate) ([4]; PS80 - 0.1%, H2O2, RL 0.02%): ~0.04%
X= calculated concentration in % of the average of 2 injections (polysorbate) ([4]; PS80 - 10%, Air, RL 0.02%): ~0.04%

Cc1cc(C(C)(C)C)c(O)c(C(C)(C)C)c1 [BHT, butylated hydroxytoluene]
X = calculated fatty acid concentration in ppb, Lauric acid ([1]; 7 weeks, 0.02 % (w/v)): below 200000 ppb
X = calculated fatty acid concentration in ppb, Myristic acid ([1]; 7 weeks, 0.02 % (w/v)): around 50000 ppb
X = calculated fatty acid concentration in ppb, Oleic acid ([1]; 7 weeks, 0.02 % (w/v)): around 100000 ppb
X = calculated fatty acid concentration in ppb, Stearic acid ([1]; 7 weeks, 0.02 % (w/v)): around 60000 ppb
4HNE measured [2]: < 50 micro M
hexanal (headspace) ([3]; Air): no hexanal could be detected
hexanal (headspace) ([3]; H2O2): no hexanal could be detected
hexanal (headspace) ([3]; T0): no hexanal could be detected
X= calculated concentration in % of the average of 2 injections (polysorbate) ([4]; PS20 - 10%, Air): ~0.04%
X= calculated concentration in % of the average of 2 injections (polysorbate) ([4]; PS80 - 0.1%, H2O2, RL 0.02%): ~0.04%
X= calculated concentration in % of the average of 2 injections (polysorbate) ([4]; PS80 - 10%, Air, RL 0.02%): ~0.04%
